In US10738094B2, “Peptides and combination of peptides for use in immunotherapy against ovarian cancer and other cancers” (immatics biotechnologies GmbH, priority 2015, dated 2020):

Experiments:
CD8+ T cells = test: In vitro immunogenicity for MHC class I presented peptides (priming of CD8+ T cells with aAPCs, pMHC multimer staining); format: cell-based, human; conditions: HLA-A*02 restricted peptides; positive wells among evaluable
From the text: In order to obtain information regarding the immunogenicity of the TUMAPs of the present invention, the inventors performed investigations using an in vitro T-cell priming assay based on repeated stimulations of CD8+ T cells with artificial antigen presenting cells (aAPCs) loaded with peptide/MHC complexes and anti-CD28 antibody.
In order to perform in vitro stimulations by artificial antigen presenting cells loaded with peptide-MHC complex (pMHC) and anti-CD28 antibody, the inventors first isolated CD8+ T cells from fresh HLA-A*02 leukapheresis products via positive selection using CD8 microbeads (Miltenyi Biotec, Bergisch-Gladbach, Germany) of healthy donors obtained from the University clinics Mannheim, Germany, after informed consent.
PBMCs and isolated CD8+ lymphocytes were incubated in T-cell medium (TCM) until use consisting of RPMI-Glutamax (Invitrogen, Karlsruhe, Germany) supplemented with 10% heat inactivated human AB serum (PAN-Biotech, Aidenbach, Germany), 100 U/ml Penicillin/100 μg/ml Streptomycin (Cambrex, Cologne, Germany), 1 mM sodium pyruvate (CC Pro, Oberdorla, Germany), 20 μg/ml Gentamycin (Cambrex). 2.5 ng/ml IL-7 (PromoCell, Heidelberg, Germany) and 10 U/ml IL-2 (Novartis Pharma, Nürnberg, Germany) were also added to the TCM at this step.
Generation of pMHC/anti-CD28 coated beads, T-cell stimulations and readout was performed in a highly defined in vitro system using four different pMHC molecules per stimulation condition and 8 different pMHC molecules per readout condition.
The purified co-stimulatory mouse IgG2a anti human CD28 Ab 9.3 (Jung et al., 1987) was chemically biotinylated using Sulfo-N-hydroxysuccinimidobiotin as recommended by the manufacturer (Perbio, Bonn, Germany). Beads used were 5.6 μm diameter streptavidin coated polystyrene particles (Bangs Laboratories, Illinois, USA).
pMHC used for positive and negative control stimulations were A*0201/MLA-001 (peptide […] (SEQ ID NO. 664) from modified Melan-A/MART-1) and A*0201/DDX5-001 ([…] from DDX5, SEQ ID NO. 665), respectively.
800,000 beads/200 μl were coated in 96-well plates in the presence of 4×12.5 ng different biotin-pMHC, washed and 600 ng biotin anti-CD28 were added subsequently in a volume of 200 μl. Stimulations were initiated in 96-well plates by co-incubating […] CD8+ T cells with 2×10^5 washed coated beads in 200 μl TCM supplemented with 5 ng/ml IL-12 (PromoCell) for 3 days at 37° C. Half of the medium was then exchanged by fresh TCM supplemented with 80 U/ml IL-2 and incubating was continued for 4 days at 37° C. This stimulation cycle was performed for a total of three times. For the pMHC multimer readout using 8 different pMHC molecules per condition, a two-dimensional combinatorial coding approach was used as previously described (Andersen et al., 2012) with minor modifications encompassing coupling to 5 different fluorochromes. Finally, multimeric analyses were performed by staining the cells with Live/dead near IR dye (Invitrogen, Karlsruhe, Germany), CD8-FITC antibody clone SK1 (BD, Heidelberg, Germany) and fluorescent pMHC multimers. For analysis, a BD LSRII SORP cytometer equipped with appropriate lasers and filters was used. Peptide specific cells were calculated as percentage of total CD8+ cells. Evaluation of multimeric analysis was done using the FlowJo software (Tree Star, Oreg., USA). In vitro priming of specific multimer+ CD8+ lymphocytes was detected by comparing to negative control stimulations.
Exemplary flow cytometry results after TUMAP-specific multimer staining for two peptides of the invention are shown in FIG. 3 together with corresponding negative controls.

HLA-A*02:01 = HLA-A*02:01 (Homo sapiens, UniProt P04439, D140Y/D185E/D98H/E176V/E277Q/G131W/G231S/I119V/I121R/I166T/I218V/L300P/L318F/N151K/N90K/P208A/P217A/Q86G/Q94H/R138H/R169H/T345S); test: MHC binding assay (UV-ligand exchange, beta2m ELISA); conditions: binding to HLA-A*02:01 ranged by peptide exchange yield (UV-ligand exchange, β2m ELISA)
In short: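 UV-cleavable ligand in peptide-MHC complexes was exchanged for test peptide. Exchange yield came from an ELISA on streptavidin-captured complexes diluted 100 fold, detecting β2m with HRP anti-β2m (2 ug/ml, 1 h, 37° C.), TMB, A450.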

Peptide exchange (HLA-A*02:01) | Substance | Wells positive [%] (CD8+ T cells)
“++” (≥20% = ++) | 319 (SLEPQIQPV; listed as Homo sapiens) [compound 319] | “+” (<20% = +)
“+++” (≥50 = +++) | 38 (FLLEDDIHVS; listed as Homo sapiens) [compound 38] | “+” (<20% = +)
“+++” (≥50 = +++) | 11 (KIFEMLEGV; listed as Homo sapiens) [compound 11] | “+” (<20% = +)
“++” (≥20% = ++) | 603 (FLIEPEHVNTV; listed as Homo sapiens) [compound 603] | “+” (<20% = +)
“++” (≥20% = ++) | 36 (YVLEDLEVTV; listed as Homo sapiens) [compound 36] | “+” (<20% = +)
“+++” (≥50 = +++) | 247 (VLLPNDLLEKV; listed as Homo sapiens) [compound 247] | “+” (<20% = +)
“+++” (≥50 = +++) | 48 (ALAELYEDEV; listed as Homo sapiens) [compound 48] | “+” (<20% = +)
“++” (≥20% = ++) | 141 (YLDFSNNRL; listed as Homo sapiens) [compound 141] | “+” (<20% = +)
“+++” (≥50 = +++) | 150 (RLWEEGEELEL; listed as Homo sapiens) [compound 150] | “+” (<20% = +)
